{"source": "patent US20080139661A1", "about": "“Fragranted moistening fluids that destroy and/or inhibit the growth of biological organisms while minimizing a tacky build up” (Pitney Bowes Incorporated, priority 2006, published 2008)", "origin": "cited, not measured here", "conditions": "at 20° C., typical value"}
{"smiles": "O", "note": "[Water]", "values": [{"measurement": "surface tension", "result": "around 72 dynes/cm"}]}
